Data published in ChEMBL document CHEMBL1156366, “Sequoiatones C-f, constituents of the redwood endophyte Aspergillus parasiticus” (J Nat Prod, 2001).

assay: Toxicity against brine shrimp; format: organism-based; conditions: artemia, in vivo; read-out: LD50 (the source's name)

For `CCCCCC[C@H](C)C(=O)/C=C1\C(C(=O)OC)=C2C=COC(C)=C2[C@]1(C)O` [SEQUOIATONE C], which LC50 is on record?
Its LC50 is 260 µM.

With `COC(=O)C1=C2C=C(C)OC=C2[C@](C)(O)/C1=C/C(=O)[C@@H](C)CCCCCCO` [SEQUOIATONE D] as the compound, how does the LC50 read?
The LC50 was 1300 µM.

Which LC50 does the source give for `COC(=O)C1=C2C=COC(C)=C2[C@](C)(O)/C1=C/C(=O)[C@@H](C)CCCCCCO` [SEQUOIATONE E] here?
The LC50 was 640 µM.

For `CCCCCC[C@H](C)C(=O)/C=C1\C(C(=O)OC)=C2C=C(C)OC=C2[C@]1(C)O` [SEQUOIATONE F], which LC50 is on record?
Its LC50 is 260 µM.
